Measurements from ChEMBL document CHEMBL1201862, “PubChem BioAssay data set” (2004).
Calls of active or inactive are those of the source.

Key:
[1] = HEK-293T viability loss after treatment – luminescence, T-cell screen hits, cytotoxicity control for TCR NF-kB inhibitor project, dose response (AID 489026); type: functional, cell-based;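 further: cells exposed to compound about 14 hours before the viability readout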
[2] = NIH3T3 cell viability loss – ATP luminescence, mouse fibroblasts, counter-screen, dose response (AID 2010); type: functional, cell-based;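 further: cells exposed to compound for about 90 hours before reading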
[3] = Trypanosoma cruzi growth suppression in host cells – NIH3T3 host cells, beta-gal luminescence, confirmation (AID 2044); type: functional, cell-based;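 further: intracellular parasites grown in NIH/3T3 mouse fibroblasts as host cells; luminescent beta-galactosidase reporter signal from transgenic T. cruzi replicating inside host cells; inhibitors lower the luminescence signal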
Protein Wnt-3a = Protein Wnt-3a (Mus musculus, UniProt P27467); assay: antagonism of Wnt3a pathway luciferase reporter – Wnt-LIGHT cells, luminescence, selectivity assay for Gli-SUFU antagonist project, dose response (AID 651570); type: functional; conditions: read-out: IC50_Mean;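 further: Wnt-LIGHT reporter cells stimulated with conditioned medium from Wnt3a-producing cells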
Protein Wnt-3a, sequence (P27467 whole entry): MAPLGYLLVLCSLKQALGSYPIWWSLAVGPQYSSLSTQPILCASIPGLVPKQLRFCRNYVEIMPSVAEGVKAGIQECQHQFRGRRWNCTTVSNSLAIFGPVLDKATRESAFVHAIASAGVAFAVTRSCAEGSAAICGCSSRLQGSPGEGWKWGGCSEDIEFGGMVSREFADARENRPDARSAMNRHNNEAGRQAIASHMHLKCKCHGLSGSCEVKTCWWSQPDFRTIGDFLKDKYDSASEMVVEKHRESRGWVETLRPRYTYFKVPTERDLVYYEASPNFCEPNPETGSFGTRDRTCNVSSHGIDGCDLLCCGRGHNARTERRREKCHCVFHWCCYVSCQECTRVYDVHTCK

Vero = assay: cells; type: functional; conditions: Chlorocebus sabaeus
[4] = biological target: T1, E3 ubiquitin-protein ligase XIAP (Homo sapiens, UniProt P98170); assay: small molecules displacing peptide from XIAP – biochemical, IAP family, fluorescence polarization (AID 1018); type: functional
T1 sequence (P98170 whole entry): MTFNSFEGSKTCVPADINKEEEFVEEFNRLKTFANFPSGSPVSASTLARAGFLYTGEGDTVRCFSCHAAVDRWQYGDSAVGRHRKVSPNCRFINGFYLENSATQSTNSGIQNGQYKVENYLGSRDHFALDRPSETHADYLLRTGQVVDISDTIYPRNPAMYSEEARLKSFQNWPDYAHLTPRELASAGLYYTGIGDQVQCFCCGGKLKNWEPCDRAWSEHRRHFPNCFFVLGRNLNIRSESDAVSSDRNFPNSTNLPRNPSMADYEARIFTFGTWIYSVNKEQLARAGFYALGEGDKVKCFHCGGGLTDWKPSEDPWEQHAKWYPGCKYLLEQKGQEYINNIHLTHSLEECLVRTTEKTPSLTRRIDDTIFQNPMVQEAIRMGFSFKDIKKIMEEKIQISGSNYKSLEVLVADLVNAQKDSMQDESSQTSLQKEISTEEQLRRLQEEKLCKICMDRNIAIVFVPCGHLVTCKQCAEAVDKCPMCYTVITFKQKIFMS

[5] = biological target: T1, E3 ubiquitin-protein ligase XIAP; assay: Counter Screen using XIAP-Bir3 for Chemical Antagonists of Bir1/2 domains of IAP-family anti-apoptotic proteins. [Related pubchem assays (depositor defined):AID1018, AID1449, AID1514, AID1638, AID1749, AID1750, AID488957, AID488963]
[6] = biological target: Dual specificity tyrosine-phosphorylation-regulated kinase 1A (Rattus norvegicus, UniProt Q63470); type: biochemical, Homo sapiens
[7] = cAMP pathway inhibition in counterscreen cell line – TR-FRET cAMP detection, counter-screen for MC4R biased antagonist project, dose response (AID 602305); type: functional, cell-based;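 further: U2OS cells stimulated with forskolin near its EC80 as the cAMP inducer; potency is for inhibition of forskolin-stimulated cAMP signaling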
Melanocortin receptor 4 = Melanocortin receptor 4 (Homo sapiens, UniProt P32245); assay: inhibitors of MC4R cAMP signaling – cell-based, TR-FRET, biased antagonists, dose response (AID 602298); type: functional;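 further: antagonist potency against agonist-stimulated cAMP production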
Melanocortin receptor 4, sequence (P32245 whole entry): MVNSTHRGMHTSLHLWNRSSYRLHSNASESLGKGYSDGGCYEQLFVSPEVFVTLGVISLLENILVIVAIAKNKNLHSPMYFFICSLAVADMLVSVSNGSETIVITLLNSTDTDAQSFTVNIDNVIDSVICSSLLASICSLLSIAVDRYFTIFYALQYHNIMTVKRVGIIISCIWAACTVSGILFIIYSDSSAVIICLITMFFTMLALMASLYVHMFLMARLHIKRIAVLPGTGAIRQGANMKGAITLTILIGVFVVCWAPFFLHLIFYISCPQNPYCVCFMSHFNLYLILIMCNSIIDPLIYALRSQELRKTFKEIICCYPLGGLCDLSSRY

[8] = biological target: Glucose-6-phosphate 1-dehydrogenase (Homo sapiens, UniProt P11413); assay: inhibition of Homo sapiens G6PD, dose series – biochemical, fluorescence, selectivity assay for P. falciparum G6PD inhibitor project, dose response (AID 504792); type: functional
Glucose-6-phosphate 1-dehydrogenase, sequence (P11413 whole entry): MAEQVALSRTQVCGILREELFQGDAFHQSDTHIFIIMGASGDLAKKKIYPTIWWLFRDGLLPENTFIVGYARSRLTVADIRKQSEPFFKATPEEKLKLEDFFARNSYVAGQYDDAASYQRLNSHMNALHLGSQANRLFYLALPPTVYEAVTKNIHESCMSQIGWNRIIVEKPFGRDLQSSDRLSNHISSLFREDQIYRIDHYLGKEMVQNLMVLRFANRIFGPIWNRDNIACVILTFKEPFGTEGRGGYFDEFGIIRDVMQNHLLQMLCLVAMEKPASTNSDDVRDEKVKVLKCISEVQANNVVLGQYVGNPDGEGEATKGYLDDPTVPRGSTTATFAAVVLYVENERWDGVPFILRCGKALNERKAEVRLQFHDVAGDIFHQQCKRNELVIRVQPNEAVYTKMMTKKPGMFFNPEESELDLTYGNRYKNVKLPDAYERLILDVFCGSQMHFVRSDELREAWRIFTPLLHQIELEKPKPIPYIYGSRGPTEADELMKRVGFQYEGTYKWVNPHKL

BJ [9] = assay: growth inhibition of engineered Ras-driven BJ cells – cell-based, alamar blue fluorescence, cherrypicked samples, dose response (AID 2631); type: functional; conditions: Homo sapiens;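 further: confirmatory dose-response assay in RAS-dependent BJ fibroblasts engineered with TERT, LT and ST, with cytotoxicity read by fluorescence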
BJ [10] = assay: BJ-TERT-LT-ST fibroblast viability loss – cell-based, RAS-independent, luminescence, dose response (AID 1935); type: functional; conditions: Homo sapiens;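 further: BJ fibroblasts immortalized with TERT plus LT and ST oncogenes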
BJ [11] = assay: BJ-TERT fibroblast viability loss – cell-based, RAS-independent, luminescence, dose response (AID 1933); type: functional; conditions: Homo sapiens
INS1 = assay: INS-1E survival protection against cytokine death – cell-based, luminescence, retest, dose response (AID 449756); type: functional; conditions: Rattus norvegicus;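 further: cell death triggered by IL-1 beta plus TNF-alpha plus IFN-gamma mixture; protective hits raise ATP signal compared with cytokine alone wells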
BJ [12] = assay: cells; type: functional, cell-based; conditions: Homo sapiens
[13] = DRD fibroblast viability loss – cell-based, non-viral oncogenic, luminescence, dose response (AID 1934); type: functional; conditions: Homo sapiens
cells = type: functional
[14] = THP-1 cell cytotoxicity, dose response, cytotoxicity control for non-replicating M. tuberculosis project (AID 489025); type: functional
[15] = biological target: T2, Short transient receptor potential channel 4 (Mus musculus, UniProt Q9QUQ5); assay: block of DAMGO-driven TRPC4 calcium entry – cell-based, HEK293 TRPC4/mu-opioid, Fluo-4 calcium, dose response (AID 434942); type: functional;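 further: potency of inhibitors blocking the TRPC4 calcium response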
T2 sequence (Q9QUQ5 whole entry): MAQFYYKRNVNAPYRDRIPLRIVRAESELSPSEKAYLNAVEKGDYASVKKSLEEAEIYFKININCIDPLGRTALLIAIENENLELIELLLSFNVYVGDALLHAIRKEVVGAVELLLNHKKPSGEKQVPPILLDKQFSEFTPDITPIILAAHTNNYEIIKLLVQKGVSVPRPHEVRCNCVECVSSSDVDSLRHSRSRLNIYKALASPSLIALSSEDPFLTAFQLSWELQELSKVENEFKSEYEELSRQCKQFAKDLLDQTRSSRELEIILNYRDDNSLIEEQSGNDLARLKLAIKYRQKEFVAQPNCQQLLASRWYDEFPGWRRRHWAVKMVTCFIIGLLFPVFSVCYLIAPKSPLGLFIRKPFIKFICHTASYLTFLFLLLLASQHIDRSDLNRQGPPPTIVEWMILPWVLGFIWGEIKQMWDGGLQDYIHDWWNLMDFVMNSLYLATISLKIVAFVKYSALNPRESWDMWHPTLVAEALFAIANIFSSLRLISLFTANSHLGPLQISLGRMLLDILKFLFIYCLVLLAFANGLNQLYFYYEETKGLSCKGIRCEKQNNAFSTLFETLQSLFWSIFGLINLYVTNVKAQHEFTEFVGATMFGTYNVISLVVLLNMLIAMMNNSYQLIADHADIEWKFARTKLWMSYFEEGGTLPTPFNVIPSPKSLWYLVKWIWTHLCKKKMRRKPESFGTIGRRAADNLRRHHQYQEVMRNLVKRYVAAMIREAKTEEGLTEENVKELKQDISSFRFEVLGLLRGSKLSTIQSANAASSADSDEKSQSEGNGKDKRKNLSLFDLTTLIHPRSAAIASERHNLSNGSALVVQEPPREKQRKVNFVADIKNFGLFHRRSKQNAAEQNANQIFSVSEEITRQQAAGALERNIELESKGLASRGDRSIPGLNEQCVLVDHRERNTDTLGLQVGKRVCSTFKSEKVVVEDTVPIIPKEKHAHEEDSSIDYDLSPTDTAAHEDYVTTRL

[16] = biological target: T3, Rac GTPase-activating protein 1 (Homo sapiens, UniProt Q9H0H5); assay: blockers of MgcRacGAP-driven Rac1 GTP hydrolysis – biochemical, ADP Hunter fluorescence, primary and confirmatory, confirmation (AID 624330); type: functional
T3 sequence (Q9H0H5 whole entry): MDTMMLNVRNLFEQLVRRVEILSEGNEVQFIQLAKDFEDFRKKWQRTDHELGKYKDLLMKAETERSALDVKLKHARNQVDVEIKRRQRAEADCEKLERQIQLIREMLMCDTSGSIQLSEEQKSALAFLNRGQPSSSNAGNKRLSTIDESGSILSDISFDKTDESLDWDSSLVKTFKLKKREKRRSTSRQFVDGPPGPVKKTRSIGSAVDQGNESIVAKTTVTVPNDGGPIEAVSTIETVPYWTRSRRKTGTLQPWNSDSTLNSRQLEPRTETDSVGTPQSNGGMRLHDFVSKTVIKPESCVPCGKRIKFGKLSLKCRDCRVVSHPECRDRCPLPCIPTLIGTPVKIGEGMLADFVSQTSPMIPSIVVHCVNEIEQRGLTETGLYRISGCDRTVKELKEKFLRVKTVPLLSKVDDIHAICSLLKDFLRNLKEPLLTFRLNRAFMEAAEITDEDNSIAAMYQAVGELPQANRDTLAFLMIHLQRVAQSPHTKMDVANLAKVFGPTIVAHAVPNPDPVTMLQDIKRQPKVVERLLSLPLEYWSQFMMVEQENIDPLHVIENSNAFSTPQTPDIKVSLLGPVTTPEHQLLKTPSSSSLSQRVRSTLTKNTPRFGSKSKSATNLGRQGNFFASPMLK

[17] = biological target: FAD-linked sulfhydryl oxidase ALR (Homo sapiens, UniProt P55789); assay: ALR-catalysed DTT oxidation blockers – biochemical, H2O2 detection, luminescence, cherry-pick, dose response (AID 493248)
FAD-linked sulfhydryl oxidase ALR, sequence (P55789 whole entry): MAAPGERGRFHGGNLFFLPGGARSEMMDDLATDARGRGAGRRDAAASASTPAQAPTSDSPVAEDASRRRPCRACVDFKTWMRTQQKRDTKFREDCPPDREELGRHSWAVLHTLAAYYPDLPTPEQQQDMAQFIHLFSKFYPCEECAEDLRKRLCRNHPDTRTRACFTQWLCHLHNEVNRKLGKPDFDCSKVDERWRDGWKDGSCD

HEK293 = assay: EBV LMP1 TES2 canonical NF-kB signalling blockers – cell-based, HEK293, luciferase, cherry-pick, dose response (AID 588343); type: functional; conditions: Homo sapiens
[18] = biological target: T4, Zinc finger protein mex-5 (Caenorhabditis elegans, UniProt Q9XUB2); assay: potency of MEX-5 RNA-binding blockers – biochemical, C. elegans, fluorescence polarization, dose response (AID 1960)
T4 sequence (Q9XUB2 whole entry): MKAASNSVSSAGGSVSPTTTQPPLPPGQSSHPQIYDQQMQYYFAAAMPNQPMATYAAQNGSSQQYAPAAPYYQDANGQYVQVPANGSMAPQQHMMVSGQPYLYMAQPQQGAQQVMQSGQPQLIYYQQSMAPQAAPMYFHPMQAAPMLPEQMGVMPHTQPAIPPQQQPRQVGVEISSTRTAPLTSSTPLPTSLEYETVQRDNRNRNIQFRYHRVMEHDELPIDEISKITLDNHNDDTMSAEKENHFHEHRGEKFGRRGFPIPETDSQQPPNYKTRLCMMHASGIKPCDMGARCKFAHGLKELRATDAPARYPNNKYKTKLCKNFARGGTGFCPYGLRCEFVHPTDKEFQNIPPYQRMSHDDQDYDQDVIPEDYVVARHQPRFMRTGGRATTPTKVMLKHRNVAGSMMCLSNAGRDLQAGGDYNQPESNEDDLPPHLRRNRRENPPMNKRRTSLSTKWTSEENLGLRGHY

[19] = biological target: T5, RNA-binding protein pos-1 (Caenorhabditis elegans, UniProt G5EF15); assay: disruptors of C. elegans POS-1 RNA interaction – biochemical, fluorescence polarization, dose response (AID 1964);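 further: purified POS-1 fused to maltose binding protein made in E. coli; potency of compounds blocking POS-1 binding to fluorescent RNA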
T5 sequence (G5EF15 whole entry): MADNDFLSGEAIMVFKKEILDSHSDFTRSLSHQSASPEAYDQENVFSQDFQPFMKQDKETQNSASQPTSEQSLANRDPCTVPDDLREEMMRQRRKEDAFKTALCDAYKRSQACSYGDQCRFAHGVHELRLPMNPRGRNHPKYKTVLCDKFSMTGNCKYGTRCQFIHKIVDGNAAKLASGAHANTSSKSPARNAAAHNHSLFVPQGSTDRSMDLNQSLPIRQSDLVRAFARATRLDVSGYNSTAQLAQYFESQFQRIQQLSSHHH

[20] = Luminescence Cell-Based Dose Confirmation HTS to Identify Inhibitors of Platelet Dense Granule Release. [Related pubchem assays: 1663 (Primary HTS), 1678 (Summary of Project)]; type: functional
[21] = biological target: Luciferin 4-monooxygenase (Photinus pyralis, UniProt P08659); assay: inhibition of purified Photinus pyralis luciferase – biochemical, luminescence, dose response (AID 1891)
Luciferin 4-monooxygenase, sequence (P08659 whole entry): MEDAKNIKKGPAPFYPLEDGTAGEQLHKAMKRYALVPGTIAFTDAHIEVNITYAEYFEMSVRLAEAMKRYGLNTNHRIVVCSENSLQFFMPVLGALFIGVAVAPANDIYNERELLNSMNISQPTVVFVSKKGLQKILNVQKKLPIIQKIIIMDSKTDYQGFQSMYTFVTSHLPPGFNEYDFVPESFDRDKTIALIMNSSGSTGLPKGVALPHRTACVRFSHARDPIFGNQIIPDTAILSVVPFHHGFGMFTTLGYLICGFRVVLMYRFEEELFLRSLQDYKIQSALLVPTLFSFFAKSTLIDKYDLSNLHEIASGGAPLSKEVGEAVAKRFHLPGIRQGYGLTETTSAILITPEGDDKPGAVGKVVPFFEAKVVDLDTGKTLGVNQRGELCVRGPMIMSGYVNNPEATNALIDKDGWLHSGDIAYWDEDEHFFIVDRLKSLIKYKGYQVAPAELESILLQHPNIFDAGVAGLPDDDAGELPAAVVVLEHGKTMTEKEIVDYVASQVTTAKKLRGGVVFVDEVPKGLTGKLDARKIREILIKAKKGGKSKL

[22] = Luminescence Cell-Based Dose Response HTS to Identify Inhibitors of 5'UTR Stem-Loop Driven Prion Protein mRNA Translation in H4 Neuroglioblastoma Cells. [Related pubchem assays: 1827 (Project Summary), 1813 (Primary HTS)]; type: functional
[23] = alpha-synuclein stem-loop luciferase translation blockers – H4 neuroglioma cells, luminescence, confirmation (AID 1988); type: functional, cell-based

## CCCCCCCOc1ccc(OC(=O)c2cccnc2)cc1
[1]
  IC50: > 80 µM (inactive)
[2]
  EC50: 4.45 µM (active)
[3]
  EC50: 1.89 µM (active)

## COC(=O)c1cc(S(=O)(=O)N2CCC(c3cc(OC)ccc3OC)C2)c[nH]1 (configuration not stated)
Protein Wnt-3a
  IC50: 7.87 µM (active)

## CN1C(=O)/C(=C\c2ccc(N3CCCCCC3)cc2)C(=O)NC1=S
Vero
  CC50: 17.9 µM (active)

## CCOC(=O)c1[nH]c2c(c1C)C(=O)CC(c1ccc(F)cc1)C2 (configuration not stated)
[1]
  IC50: > 80 µM (inactive)

## CCOC(=O)CCc1c(C)c2ccc(O)cc2oc1=O
[4]
  IC50: > 100 µM (not active)
[5]
  IC50: > 100 µM (inactive)

## CSc1cccc(NC(=O)c2c(Cl)cnn2C)c1
[6]
  AC50: 7.08 µM (active)

## COC(=O)c1c(NC(=O)CC2SCC(C(=O)OC)NC2=O)sc2c1CCCC2 (configuration not stated)
[7]
  IC50: > 64.6 µM (inactive)
Melanocortin receptor 4
  IC50: > 64.6 µM (inactive)

## CCN(CC)C(=O)c1c(C)[nH]c(=S)c(C#N)c1-c1ccco1
[8]
  IC50: > 80 µM (inactive)

## O=C(NCc1cccnc1)c1ccc(-c2cc3ccccc3oc2=O)cc1
BJ [9]
  EC50: 6.49 µM (active)
BJ [10]
  EC50: 3.16 µM (active)
BJ [11]
  EC50: 22.6 µM (active)
INS1
  AC50: 3.61 µM (active)
BJ [12]
  EC50: 11.8 µM (inconclusive)
[13]
  EC50: > 150 µM (not active)

## O=S1(=O)CC2N=C(N(Cc3c(F)cccc3Cl)c3ccccc3F)SC2C1 (configuration not stated)
[4]
  IC50: > 100 µM (not active)
[5]
  IC50: > 100 µM (inactive)

## COc1ccc(C(=O)Nc2nc(-c3cccs3)c(NC(C)=O)s2)cc1
[4]
  IC50: > 100 µM (not active)
[5]
  IC50: > 100 µM (inactive)

## COc1cccc2[nH]c3c(Cl)ncnc3c12
cells
  IC50: > 50 µM (active)
[7]
  IC50: > 64.6 µM (inactive)
[14]
  CC50: 33.9 µM (active)
Melanocortin receptor 4
  IC50: > 64.6 µM (inactive)

## COc1cc(/C=C2\SC(N3CCC(C)CC3)=NC2=O)ccc1O
[6]
  AC50: 2.68 µM (active)
[15]
  EC50: 3.35 µM (active)
[16]
  IC50: 16.3 µM (active)
[17]
  AC50: 0.929 µM (active)

## O=C(CCl)N(CCCNC(=O)C(F)(F)F)c1ccc([N+](=O)[O-])cc1
BJ [9]
  EC50: 0.995 µM (active)
BJ [10]
  EC50: 11.6 µM (inconclusive)
BJ [11]
  EC50: 2.53 µM (inconclusive)
BJ [12]
  EC50: 4.39 µM (active)
[13]
  EC50: 4.66 µM (active)

## COc1ccc(-n2c(SC3CCOC3=O)nc3ccccc32)cc1 (configuration not stated)
[7]
  IC50: > 64.6 µM (inactive)
Melanocortin receptor 4
  IC50: > 64.6 µM (inactive)

## Cc1nn(-c2ccc(NC(=O)c3ccncc3)cc2)c(C)c1Cl
Protein Wnt-3a
  IC50: 3 µM (active)

## C/C(=C\[C@@H](NP(=O)(c1ccccc1)c1ccccc1)c1ccccc1)CO[Si](c1ccccc1)(c1ccccc1)C(C)(C)C
Vero
  CC50: > 25 µM (active)

## COc1cccc(C(=O)N2CCN(c3nc4cc(C)cc(C)c4cc3C#N)CC2)c1
HEK293
  AC50: 194 µM (active)

## C(=N\Nc1nc2ccccc2[nH]1)/c1ccccn1
BJ [9]
  EC50: 1.99 µM (active)
[18]
  EC50: 41.7 µM (active)
[19]
  EC50: 72.9 µM (active)
[20]
  EC50: 4.15 µM (active)
[21]
  EC50: 1.16 µM (active)
[8]
  IC50: > 80 µM (inactive)
[22]
  EC50: 1.29 µM (active)
[23]
  EC50: 5.82 µM (active)

## O=[N+]([O-])c1ccc(O)c(/C=N/n2c(S)nnc2-c2ccccc2)c1
[6]
  AC50: 7.9 µM (active)

## CCn1/c(=N/c2ccc(N3CCOCC3)cc2)ccc2ccccc21
[4]
  IC50: > 100 µM (not active)
[5]
  IC50: > 100 µM (inactive)

## Cc1cc(C)nc(/N=C(\N)NCCc2ccccc2)n1
[8]
  IC50: > 80 µM (inactive)
